Measured values: patent EP0187956A2, “Pharmaceutical composition for the treatment of defects of the gastrointestinal mucous membrane” (BOEHRINGER INGELHEIM KG, priority 1984, dated 1986)

Legend:
[1] = test system: Durch Ethanol verursachte Magengeschwüre; assay: Ethanol-induced gastric ulcers in fasted female rats; type: in vivo, Ratten; settings: for ED50: Rattus norvegicus, po, 30 min before 0,7 ml absolute ethanol, dose protecting 50 % of the animals
Method: (§1) Die mucoprotektive Wirkung auf den Gastrointestinaltrakt verschiedener Verbindungen wurde im Vergleich zu dem bekannten Antiulcusmittel Carbenoxolone an weiblichen Ratten getestet, die für 24 Stunden vor Beginn des Tests fasteten. Diese Tiere wurden den folgenden Tests unterworfen:
(§2) Gruppen von 10 Ratten erhielten abgestufte Dosen der zu untersuchenden Verbindungen oral mittels Schlundsonde; die Verbindungen waren in 0,2 % Methocel suspendiert. Nach 30 Minuten erhielten die Tiere 0,7 ml absolutes Ethanol. 30 Minuten später wurden die Tiere getötet, der Magen entfernt, entlang der großen Curvatur geöffnet und von einem neutralen Beobachter untersucht. Einem Magengeschwür entsprechende Schädigungen wurden auch nach ihrer Schwere beurteilt, aber ihre Häufigkeit (in %) diente als Basis für die Berechnung des prozentualen Schutzes. Die ED50 ist diejenige Dosis einer Verbindung, die 50 % der Tiere schützt; sie wird ausgedrückt durch die Relation Schutz:Dosis.

[2] = test system: Durch Natronlauge verursachte Magengeschwüre; assay: Sodium hydroxide (0,2 N)-induced gastric ulcers in fasted female rats; type: in vivo, Ratten; settings: for ED50: Rattus norvegicus, po, 1 h, p.o., 0,2 N sodium hydroxide as ulcerogen, animals killed 60 min after it
Method: as §1, §2
Der Test verlief in gleicher Weise wie der unter 1. beschriebene. Anstelle von Ethanol wurde 0,2 N Natronlauge als Ulcus verursachendes Agens gewählt und die Tiere 60 Minuten nach dessen Gabe getötet. Die ED50 wurde, wie oben angegeben, bestimmt.

[3] = test system: Durch Ethanol verursachte Magengeschwüre bei Ratten, die mit Indomethacin und Acetylsalicylsäure vorbehandelt worden waren; assay: Ethanol-induced gastric ulcers in rats pretreated with indomethacin or acetylsalicylic acid (suppression of prostaglandin synthesis); type: in vivo; settings: 30 mg/kg p.o.
Method: as §1, §2
Es ist bekannt, daß Prostaglandine einen cytoprotektiven Effekt haben. Weiter ist bekannt, daß Prostaglandine eine antiulcerogene Wirkung haben. Durch eine Hemmung der Prostaglandin-Biosynthese, z.B. durch Acetylsalicylsäure oder Indomethacin, wird die antiulceregene Wirkung unterdrückt.
Gruppen von je 10 Ratten wurden entweder mit Indomethacin (3 mg/kg s.c.) oder Acetylsalicylsäure (10 mg/kg) vorbehandelt und nach 30 bis 60 Minuten die Testsubstanz verabreicht. Dann wurde ein durch Ethanol verursachtes Magengeschwür gesetzt und, wie unter 1. beschrieben, weitergearbeitet.

Compound `CC(CS)C(=O)N1CCc2sccc2C1C(=O)O` [C, 1-(3-Mercapto-2-(R,S)-methylpropanoyl)-4,5,6,7-tetrahydro-thieno-[3,2-c]pyridin-4-(R,S)-carbonsäure] has an ED50 [1] of 6 mg/kg.
With `CC(CS)C(=O)N1CCC[C@@H]1C(=O)O` (stereo partly drawn) [Captopril, D-2-Methyl-3-mercaptopropanoyl-L-prolin, reference compound] the “% Schutz (% Tier ohne Magengeschwüre)” value ([1]; 30 mg/kg p.o.) was 5%, the “% Schutz (% Tier ohne Magengeschwüre)” value ([1]; 55 mg/kg p.o.) was 30% and the “% Schutz (% Tier ohne Magengeschwüre)” value ([1]; 100 mg/kg p.o.) was 70%. For the same compound, the ED50 [1] was 74.4 mg/kg.
For `CC1(C)[C@@H](OC(=O)CCC(=O)O)CC[C@]2(C)[C@H]3C(=O)C=C4[C@@H]5C[C@@](C)(C(=O)O)CC[C@]5(C)CC[C@@]4(C)[C@]3(C)CC[C@@H]12` [Carbenoxolone, reference compound], the “% Schutz (% Tier ohne Magengeschwüre)” value ([1]; 30 mg/kg p.o.) was 10%, the “% Schutz (% Tier ohne Magengeschwüre)” value ([1]; 100 mg/kg p.o.) was 60% and the “% Schutz (% Tier ohne Magengeschwüre)” value ([1]; 300 mg/kg p.o.) was 90%. For the same compound, the ED50 [1] was 89 mg/kg, the “%Schutz-wirkung” value ([2]; 100 mg/kg p.o.) was 33% and the “%Schutz-wirkung” value ([2]; 170 mg/kg p.o.) was 70%. The “%Schutz-wirkung” value ([2]; 300 mg/kg p.o.) was 80% and the ED50 [2] was 132 mg/kg.
Compound `C[C@@H](CSC(C[N+](=O)[O-])c1ccccc1)C(=O)N1CCC[C@H]1C(=O)O` (stereo partly drawn) [D, 1-[3-(1-Phenyl-2-nitro-äthylthio)-2-R-methylpropanoyl]-L-prolin] has an ED50 [1] of 0.6 mg/kg.
Compound `CCOC(=O)[C@H](CCc1ccccc1)N[C@@H](C)C(=O)N1CCc2ccsc2[C@H]1C(=O)O` [E, N-[N-1-(S-Ethoxycarbonyl-3-phenylpropyl)-2-S-alanyl]-4,5,6,7-tetrahydro-thieno[2,3-c]pyridin-7-R-carbonsäure] has an ED50 [1] of 12 mg/kg.
Work on `CC(=O)SC[C@@H](C)C(=O)N1CCc2sccc2C1C(=O)O` (stereo partly shown) [F] yielded an ED50 [1] of 3 mg/kg.
For `C[C@H](CS)C(=O)N1CCC[C@H]1C(=O)OCOC(=O)C(C)(C)C` [G, 1-(3-Mercapto-Z-D-methylpropanoyl)-L-prolin-pivaloyloxymethylester], the “% Schutz (% Tier ohne Magengeschwüre)” value ([1]; 3 mg/kg p.o.) was 30%, the “% Schutz (% Tier ohne Magengeschwüre)” value ([1]; 10 mg/kg p.o.) was 50% and the “% Schutz (% Tier ohne Magengeschwüre)” value ([1]; 30 mg/kg p.o.) was 40%. The ED50 [1] was 4 mg/kg, the “%Schutz-wirkung” value ([2]; 3 mg/kg p.o.) was 10% and the “%Schutz-wirkung” value ([2]; 10 mg/kg p.o.) was 39%. For the same compound, the “%Schutz-wirkung” value ([2]; 17 mg/kg p.o.) was 70%, the “%Schutz-wirkung” value ([2]; 30 mg/kg p.o.) was 80% and the ED50 [2] was 11.7 mg/kg. For the same compound, the “% Schutzwirkung” value ([3]; pretreatment: Acetylsalicylsäure 10 mg/kg p.o., 60 min before ethanol) was 10%, the “% Schutzwirkung” value ([3]; pretreatment: Indomethacin 3 mg/kg s.c., 30 min before ethanol) was 40% and the “% Schutzwirkung” value ([3]; pretreatment: saline (control)) was 100%.
